Measurements: patent US12697330B2, “Therapeutic methods using vadadustat” (Akebia Therapeutics, Inc., priority 2021, dated 2026)

Tested on: hemoglobin (Hb)
Experiment: Phase 2 study in hemodialysis subjects converting from epoetin alfa, Main Study: efficacy (hemoglobin)
Type: in vivo, human
From the text: The primary objective was to assess the efficacy and safety of daily dosing of vadadustat compared to epoetin alfa for 12 weeks in hemodialysis subjects. Additional objectives included to assess the efficacy and safety of three times weekly (TIW) dosing of vadadustat in selected hemodialysis subjects who have been successfully managed with daily dosing of vadadustat through Week 12, to evaluate the PK/PD of daily and TIW dosing of vadadustat in hemodialysis subjects compared to epoetin alfa, and to assess the efficacy and safety of several dosing strategies of vadadustat compared to epoetin alfa during a 20-week Treatment Period in hemodialysis subjects.
The Main study population consisted of adult subjects receiving chronic, outpatient in-center hemodialysis three times weekly (TIW), with 2 screening hemoglobin (Hb) values between 8.5 and 11.0 g/dL (inclusive) and on maintenance treatment with epoetin alfa <300 U/kg/week.
Efficacy Endpoints. The primary endpoint was the mean change in Hb between Baseline (average pretreatment Hb) and the primary evaluation period (average Hb from Weeks 10 to 12). Secondary endpoints included proportion of subjects with Hb values within the target range (10.0 to 11.0 g/dL, inclusive) at the primary evaluation period (Weeks 10-12) and for subjects who transitioned to TIW vadadustat dosing, mean change in Hb from primary evaluation period (average Hb from Weeks 10-12) to the secondary period (average Hb from Weeks 18-20). Other secondary endpoints included mean change in Hb from Baseline (average pretreatment Hb) and the secondary evaluation period (average Hb from Weeks 18-20), proportion of subjects with Hb values within the target range (10.0 to 11.0 g/dL, inclusive) at the secondary evaluation period (Weeks 18 to 20), for subjects who transitioned to TIW vadadustat dosing, proportion of subjects with Hb values within the target range (10.0 to 11.0 g/dL, inclusive) at the secondary evaluation period (Weeks 18-20), proportion of subjects with a mean increase in Hb from Baseline to the primary evaluation period ≥0.5 g/dL (average Hb from Weeks 10-12) or with Hb values within the target range (10.0 to 11.0 g/dL, inclusive) at the primary evaluation period (Weeks 10-12), proportion of subject with a mean increase in Hb from Baseline to the secondary evaluation period ≥0.5 g/dL (average Hb from Weeks 18-20) or with Hb values within the target range (10.0 to 11.0 g/dL, inclusive) at the secondary evaluation period (Weeks 18-20), intravenous (IV) iron supplementation, ESA rescue, and RBC transfusion.
Study Design. This was a Phase 2, randomized, open-label study to evaluate vadadustat for the treatment of anemia in hemodialysis subjects converting from epoetin alfa therapy. For all subjects (Main study and ESA hyporesponder parallel study), the study included a Screening Period, a study Treatment Period, and a Safety Follow-Up Period as described below. PK and PD sampling were done throughout the study. The aim was to achieve and maintain Hb levels within the target range of 10.0 to 11.0 g/dL, inclusive, while targeting the middle of the range and minimizing excursions outside the target range.
Randomization. Subjects were randomized to either a vadadustat treatment arm or epoetin alfa treatment arm. Randomization was stratified by mean weekly epoetin alfa dose calculated over a period of 8 weeks prior to SV2: low epoetin alfa dose group (≤90 U/kg/week) or high epoetin alfa dose group (>90 to <300 U/kg/week). In the low epoetin alfa dose group, subjects were randomized in a 3:3:2 ratio to receive either an initial vadadustat daily dose of 450 mg (3 tablets) or 300 mg (2 tablets), or epoetin alfa. In the high epoetin alfa dose group, subjects were randomized in a 3:3:3:2 ratio to receive either an initial vadadustat daily dose of 600 mg (4 tablets), 450 mg (3 tablets) or 300 mg (2 tablets), or epoetin alfa.
Study Treatment Period (Baseline/Day 1 to Week 20). […]

[1] = Primary Evaluation Period (Average of Weeks 10 to 12), Vada 300 mg, High Epoetin Alfa (>90 to <300 U/kg/week)
[2] = Primary Evaluation Period (Average of Weeks 10 to 12), Vada 300 mg, Low Epoetin Alfa (<90 U/kg/week)
[3] = Primary Evaluation Period (Average of Weeks 10 to 12), Vada 450 mg, High Epoetin Alfa (>90 to <300 U/kg/week)
[4] = Primary Evaluation Period (Average of Weeks 10 to 12), Vada 450 mg, Low Epoetin Alfa (<90 U/kg/week)
[5] = Primary Evaluation Period (Average of Weeks 10 to 12), Vada 600 mg, High Epoetin Alfa (>90 to <300 U/kg/week)
[6] = Secondary Evaluation Period (Average of Weeks 18 to 20), Vada 300 mg, High Epoetin Alfa (>90 to <300 U/kg/week)
[7] = Secondary Evaluation Period (Average of Weeks 18 to 20), Vada 300 mg, Low Epoetin Alfa (<90 U/kg/week)
[8] = Secondary Evaluation Period (Average of Weeks 18 to 20), Vada 450 mg, High Epoetin Alfa (>90 to <300 U/kg/week)
[9] = Secondary Evaluation Period (Average of Weeks 18 to 20), Vada 450 mg, Low Epoetin Alfa (<90 U/kg/week)
[10] = Secondary Evaluation Period (Average of Weeks 18 to 20), Vada 600 mg, High Epoetin Alfa (>90 to <300 U/kg/week)
[11] = Vada 300 mg, High Epoetin Alfa (>90 to <300 U/kg/week)
[12] = Vada 300 mg, Low Epoetin Alfa (<90 U/kg/week)
[13] = Vada 450 mg, High Epoetin Alfa (>90 to <300 U/kg/week)
[14] = Vada 450 mg, Low Epoetin Alfa (<90 U/kg/week)
[15] = Vada 600 mg, High Epoetin Alfa (>90 to <300 U/kg/week)

O=C(O)CNC(=O)c1ncc(-c2cccc(Cl)c2)cc1O [Compound 1, {[5-(3-chlorophenyl)-3-hydroxypyridine-2-carbonyl]amino}acetic acid]
Subjects with Hb Higher than Target range (10.0 to 11.0 g/dL), number (percentage of N2) [1]: 0 | Subjects with Hb Lower than Target range (10.0 to 11.0 g/dL), number (percentage of N2) [1]: 11 (91.7) | Subjects with Hb Within Target range (10.0 to 11.0 g/dL), number (percentage of N2) [1]: 1 (8.3) | Subjects with Hb Higher than Target range (10.0 to 11.0 g/dL), number (percentage of N2) [2]: 2 (6.7) | Subjects with Hb Lower than Target range (10.0 to 11.0 g/dL), number (percentage of N2) [2]: 16 (53.3) | Subjects with Hb Within Target range (10.0 to 11.0 g/dL), number (percentage of N2) [2]: 12 (40.0) | Subjects with Hb Higher than Target range (10.0 to 11.0 g/dL), number (percentage of N2) [3]: 4 (22.2) | Subjects with Hb Lower than Target range (10.0 to 11.0 g/dL), number (percentage of N2) [3]: 10 (55.6) | Subjects with Hb Within Target range (10.0 to 11.0 g/dL), number (percentage of N2) [3]: 4 (22.2) | Subjects with Hb Higher than Target range (10.0 to 11.0 g/dL), number (percentage of N2) [4]: 6 (20.0) | Subjects with Hb Lower than Target range (10.0 to 11.0 g/dL), number (percentage of N2) [4]: 11 (36.7) | Subjects with Hb Within Target range (10.0 to 11.0 g/dL), number (percentage of N2) [4]: 13 (43.3) | Subjects with Hb Higher than Target range (10.0 to 11.0 g/dL), number (percentage of N2) [5]: 2 (14.3) | Subjects with Hb Lower than Target range (10.0 to 11.0 g/dL), number (percentage of N2) [5]: 8 (57.1) | Subjects with Hb Within Target range (10.0 to 11.0 g/dL), number (percentage of N2) [5]: 4 (28.6) | Subjects with Hb Higher than Target range (10.0 to 11.0 g/dL), number (percentage of N2) [6]: 1 (14.3) | Subjects with Hb Lower than Target range (10.0 to 11.0 g/dL), number (percentage of N2) [6]: 4 (57.1) | Subjects with Hb Within Target range (10.0 to 11.0 g/dL), number (percentage of N2) [6]: 2 (28.6) | Subjects with Hb Higher than Target range (10.0 to 11.0 g/dL), number (percentage of N2) [7]: 4 (15.4) | Subjects with Hb Lower than Target range (10.0 to 11.0 g/dL), number (percentage of N2) [7]: 16 (61.5) | Subjects with Hb Within Target range (10.0 to 11.0 g/dL), number (percentage of N2) [7]: 6 (23.1) | Subjects with Hb Higher than Target range (10.0 to 11.0 g/dL), number (percentage of N2) [8]: 2 (14.3) | Subjects with Hb Lower than Target range (10.0 to 11.0 g/dL), number (percentage of N2) [8]: 9 (64.3) | Subjects with Hb Within Target range (10.0 to 11.0 g/dL), number (percentage of N2) [8]: 3 (21.4) | Subjects with Hb Higher than Target range (10.0 to 11.0 g/dL), number (percentage of N2) [9]: 3 (12.5) | Subjects with Hb Lower than Target range (10.0 to 11.0 g/dL), number (percentage of N2) [9]: 14 (58.3) | Subjects with Hb Within Target range (10.0 to 11.0 g/dL), number (percentage of N2) [9]: 7 (29.2) | Subjects with Hb Higher than Target range (10.0 to 11.0 g/dL), number (percentage of N2) [10]: 1 (10.0) | Subjects with Hb Lower than Target range (10.0 to 11.0 g/dL), number (percentage of N2) [10]: 7 (70.0) | Subjects with Hb Within Target range (10.0 to 11.0 g/dL), number (percentage of N2) [10]: 2 (20.0) | Change from Baseline in Hb at Primary Evaluation Period, Mean (SD) [11]: −1.048 (0.730) g/dL | Change from Baseline in Hb at Primary Evaluation Period, Median [11]: -0.967 g/dL | Change from Baseline in Hb at Secondary Evaluation Period, Mean (SD) [11]: 0.017 (1.086) g/dL | Change from Baseline in Hb at Secondary Evaluation Period, Median [11]: -0.325 g/dL | Hb at Primary Evaluation Period (Average of Weeks 10 to 12), Mean (SD) [11]: 8.82 (0.761) g/dL | Hb at Primary Evaluation Period (Average of Weeks 10 to 12), Median [11]: 8.750 g/dL | Hb at Secondary Evaluation Period (Average of Weeks 18 to 20), Mean (SD) [11]: 9.88 (1.027) g/dL | Hb at Secondary Evaluation Period (Average of Weeks 18 to 20), Median [11]: 9.575 g/dL | Change from Baseline in Hb at Primary Evaluation Period, Mean (SD) [12]: −0.421 (0.732) g/dL | Change from Baseline in Hb at Primary Evaluation Period, Median [12]: -0.450 g/dL | Change from Baseline in Hb at Secondary Evaluation Period, Mean (SD) [12]: −0.327 (1.086) g/dL | Change from Baseline in Hb at Secondary Evaluation Period, Median [12]: -0.300 g/dL | Hb at Primary Evaluation Period (Average of Weeks 10 to 12), Mean (SD) [12]: 9.78 (0.742) g/dL | Hb at Primary Evaluation Period (Average of Weeks 10 to 12), Median [12]: 9.767 g/dL | Hb at Secondary Evaluation Period (Average of Weeks 18 to 20), Mean (SD) [12]: 9.86 (0.932) g/dL | Hb at Secondary Evaluation Period (Average of Weeks 18 to 20), Median [12]: 9.775 g/dL | Change from Baseline in Hb at Primary Evaluation Period, Mean (SD) [13]: −0.130 (1.033) g/dL | Change from Baseline in Hb at Primary Evaluation Period, Median [13]: -0.250 g/dL | Change from Baseline in Hb at Secondary Evaluation Period, Mean (SD) [13]: −0.458 (0.895) g/dL | Change from Baseline in Hb at Secondary Evaluation Period, Median [13]: -0.575 g/dL | Hb at Primary Evaluation Period (Average of Weeks 10 to 12), Mean (SD) [13]: 9.96 (1.121) g/dL | Hb at Primary Evaluation Period (Average of Weeks 10 to 12), Median [13]: 9.750 g/dL | Hb at Secondary Evaluation Period (Average of Weeks 18 to 20), Mean (SD) [13]: 9.63 (0.954) g/dL | Hb at Secondary Evaluation Period (Average of Weeks 18 to 20), Median [13]: 9.475 g/dL | Change from Baseline in Hb at Primary Evaluation Period, Mean (SD) [14]: −0.074 (1.085) g/dL | Change from Baseline in Hb at Primary Evaluation Period, Median [14]: 0.017 g/dL | Change from Baseline in Hb at Secondary Evaluation Period, Mean (SD) [14]: −0.273 (0.827) g/dL | Change from Baseline in Hb at Secondary Evaluation Period, Median [14]: -0.300 g/dL | Hb at Primary Evaluation Period (Average of Weeks 10 to 12), Mean (SD) [14]: 10.08 (1.226) g/dL | Hb at Primary Evaluation Period (Average of Weeks 10 to 12), Median [14]: 10.550 g/dL | Hb at Secondary Evaluation Period (Average of Weeks 18 to 20), Mean (SD) [14]: 9.91 (0.909) g/dL | Hb at Secondary Evaluation Period (Average of Weeks 18 to 20), Median [14]: 9.917 g/dL | Change from Baseline in Hb at Primary Evaluation Period, Mean (SD) [15]: −0.541 (1.124) g/dL | Change from Baseline in Hb at Primary Evaluation Period, Median [15]: -0.133 g/dL | Change from Baseline in Hb at Secondary Evaluation Period, Mean (SD) [15]: −0.500 (1.025) g/dL | Change from Baseline in Hb at Secondary Evaluation Period, Median [15]: -0.300 g/dL | Hb at Primary Evaluation Period (Average of Weeks 10 to 12), Mean (SD) [15]: 9.62 (1.026) g/dL | Hb at Primary Evaluation Period (Average of Weeks 10 to 12), Median [15]: 9.233 g/dL | Hb at Secondary Evaluation Period (Average of Weeks 18 to 20), Mean (SD) [15]: 9.57 (0.871) g/dL | Hb at Secondary Evaluation Period (Average of Weeks 18 to 20), Median [15]: 9.450 g/dL
